According to patent US20220072089A1, “CANCER THERAPEUTIC COMPOSITIONS AND METHODS” (University of Vermont and State Agricultural College, priority 2018, published 2022):
Read-outs that look alike come from different tables or passages of the source.

What was measured:
MM cells = assay: Combinations administered to subjects with malignant mesothelioma, Example 8; format: in vivo
Procedure: Subjects with malignant mesothelioma (MM) are administered (1) thiostrepton (TS) and TLK-199, (2) TS, gentian violet (GV), and TLK or (3) GV and TLK-199.

[1] = tested on: patients with myelodysplatic syndrome; settings: 50-600 mg/m^2 IV over 60 minutes; cited from earlier work
[2] = tested on: Malignant mesothelioma (MM) cells; assay: Malignant mesothelioma cell viability (cell number), Example 1; format: cell-based; settings: Homo sapiens
Procedure: Malignant mesothelioma (MM) cells were incubated with increasing concentrations of TS (0-10 μM) and TLK-199 (0-200 μM) for 48 hours and then assayed for cell number (viability).

peroxiredoxin 3 (PRX3) = target: T1, peroxiredoxin 3 (PRX3) (Homo sapiens, UniProt P30048); assay: Covalent adduction of PRX3 in MM cells (reducing SDS-PAGE, western blot), Example 7; format: cell-based; settings: 0, 2, 4 μM TS alone or with 30 μM TLK-199, 24 hours, FIG. 4
T1 construct: endogenous in cells
T1 sequence (P30048 62-256): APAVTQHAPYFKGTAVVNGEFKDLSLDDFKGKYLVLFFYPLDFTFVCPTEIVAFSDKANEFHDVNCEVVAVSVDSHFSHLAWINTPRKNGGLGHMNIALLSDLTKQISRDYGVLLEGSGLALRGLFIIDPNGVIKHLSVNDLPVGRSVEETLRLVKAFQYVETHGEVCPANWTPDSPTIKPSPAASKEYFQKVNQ
Procedure: Malignant mesothelioma (MM) cells were incubated with 0, 2,and 4 μM Thiostrepton (TS) alone or in the presence of 30 μM TLK-199 for 24 hours. Cell lysates were collected, and proteins were separated by reducing SDS-Polyacrylamide Gel Electrophoresis.

[3] = single agent, malignant mesothelioma cells, 48 hours, read-out: inhibitory concentration required to kill 50% of cells (IC50)

Row | SMILES | effect of including TLK-199 on reduction in viability of MM cells (MM cells) | bone marrow maturation and cellularity [1] | clinical symptoms [1] | transfusion requirements [1] | IC50 [2, 3] [nM] | covalent adduction of PRX3 (PRX3 dimer:monomer ratio) (peroxiredoxin 3 (PRX3)) | IC50 ([2]; 48 h, read-out: inhibitory concentration required to kill 50% of cells (IC50)) [nM] | IC50 ([2]; read-out: calculated IC50) [nM]
1 | CCOC(=O)[C@@H](NC(=O)[C@H](CSCc1ccccc1)NC(=O)CC[C@H](N)C(=O)OCC)c1ccccc1 [TLK-199, (S)-ethyl 2-amino-5-(((R)-3-(benzylthio)-1-(((S)-2-ethoxy-2-oxo-1-phenylethyl)amino)-1-oxopropan-2-yl)amino)-5-oxopentanoate] | synergistic effect | Improvement in bone marrow maturation and cellularity | improvement in clinical symptoms | reductions in transfusion requirements | 45000 |  |  | 
2 | C=C(NC(=O)C(=C)NC(=O)c1csc(C2=N[C@@H]3c4csc(n4)[C@H]4NC(=O)c5csc(n5)[C@H]([C@](C)(O)[C@@H](C)O)NC(=O)[C@H]5CSC(=N5)/C(=C/C)NC(=O)[C@H]([C@@H](C)O)NC(=O)c5csc(n5)[C@]3(CC2)NC(=O)[C@H](C)NC(=O)C(=C)NC(=O)[C@H](C)NC(=O)[C@H]([C@@H](C)CC)N[C@@H]2C=Cc3c([C@H](C)O)cc(nc3[C@H]2O)C(=O)O[C@@H]4C)n1)C(N)=O [TS, Thiostrepton] |  |  |  |  |  | PRX3 monomers were covalently crosslinked | ~1500 | 900 to 2400
3 | CN(C)c1ccc(C(=C2C=CC(=[N+](C)C)C=C2)c2ccc(N(C)C)cc2)cc1 [GV, Gentian violet] |  |  |  |  | 150 |  |  | 
